In patent US7459451B2, “Pyrazolopyridine derivatives” (Astellas Pharma Inc., priority 2004, dated 2008):

Row | Structure (SMILES) | melting point
1 | CCn1ncc2c(-c3cncc(Cl)c3)c(/C=C/C(=O)O)c(C(C)C)nc21 [Example 228, (2E)-3-[4-(5-Chloro-3-pyridyl)-1-ethyl-6-isopropyl-1H-pyrazolo[3,4-b]pyridin-5-yl]acrylic acid] | 218 to 220.5 °C
2 | CCn1ncc2c(-c3cncc(C)c3)c(CCC(=O)O)c(CC(C)C)nc21 [Example 344, 3-[1-Ethyl-6-isobutyl-4-(5-methyl-3-pyridyl)-1H-pyrazolo[3,4-b]pyridin-5-yl]propanoic acid] | 190 to 191 °C
3 | CCn1ncc2c(-c3cncc(C)c3)c(/C=C/C(=O)O)c(COC)nc21 [Example 82, (2E)-3-[1-ethyl-6-(methoxymethyl)-4-(5-methyl-3-pyridyl)-1H-pyrazolo[3,4-b]pyridin-5-yl]acrylic acid] | 195 to 196 °C
4 | CCn1ncc2c(-c3cncc(C)c3)c(/C=C/C(=O)O)c(COC(C)C)nc21 [Example 240, (2E)-3-[1-Ethyl-6-(isopropoxymethyl)-4-(5-methyl-3-pyridyl)-1H-pyrazolo[3,4-b]pyridin-5-yl]acrylic acid] | 198 to 199 °C
5 | CCn1ncc2c(-c3cncc(C)c3)c(CCC(=O)O)c(CC(C)(C)C)nc21 [Example 349, 3-[6-(2,2-Dimethylpropyl)-1-ethyl-4-(5-methyl-3-pyridyl)-1H-pyrazolo[3,4-b]pyridin-5-yl]propanoic acid] | 221 to 223 °C
6 | CCn1ncc2c(-c3cncc(C)c3)c(/C=C/C(=O)O)c(CC(C)C)nc21 [Example 215, (2E)-3-[1-Ethyl-6-isobutyl-4-(5-methyl-3-pyridyl)-1H-pyrazolo[3,4-b]pyridin-5-yl]acrylic acid] | 212 to 213 °C
7 | CCn1ncc2c(-c3cncc(C)c3)c(CCC(=O)O)c(C(C)C)nc21 [Example 194, 3-[1-Ethyl-6-isopropyl-4-(5-methyl-3-pyridyl)-1H-pyrazolo[3,4-b]pyridin-5-yl]propanoic acid] | 203 to 205 °C
8 | CCn1ncc2c(-c3ccc(Cl)s3)c(/C=C/C(=O)O)c(C(C)C)nc21 [Example 224, (2E)-3-[4-(5-Chloro-2-thienyl)-1-ethyl-6-isopropyl-1H-pyrazolo[3,4-b]pyridin-5-yl]acrylic acid] | 163 to 165 °C
9 | Cc1cncc(-c2c(CCC(=O)O)c(C)nc3c2cnn3C)c1 [Example 97, 3-[1,6-Dimethyl-4-(5-methyl-3-pyridyl)-1H-pyrazolo[3,4-b]pyridin-5-yl]propanoic acid] | 205 to 207 °C
10 | CCn1ncc2c(-c3cncc(C)c3)c(/C=C/C(=O)O)c(C(C)C)nc21 [Example 212, (2E)-3-[1-Ethyl-6-isopropyl-4-(5-methyl-3-pyridyl)-1H-pyrazolo[3,4-b]pyridin-5-yl]acrylic acid] | 247 to 248 °C
11 | CCn1ncc2c(-c3cncc(Br)c3)c(/C=C/C(=O)O)c(C(C)C)nc21 [Example 225, (2E)-3-[4-(5-Bromo-3-pyridyl)-1-ethyl-6-isopropyl-1H-pyrazolo[3,4-b]pyridin-5-yl]acrylic acid] | 234 to 235 °C
12 | CCC(CC)c1nc2c(cnn2CC)c(-c2cncc(C)c2)c1CCC(=O)O [Example 346, 3-[1-Ethyl-6-(1-ethylpropyl)-4-(5-methyl-3-pyridyl)-1H-pyrazolo[3,4-b]pyridin-5-yl]propanoic acid] | 144 to 145 °C
13 | CCn1ncc2c(-c3ccnc(C)c3)c(/C=C/C(=O)O)c(C(C)C)nc21 [Example 242, (2E)-3-[1-Ethyl-6-isopropyl-4-(2-methyl-4-pyridyl)-1H-pyrazolo[3,4-b]pyridin-5-yl]acrylic acid] | 260 to 262.5 °C
14 | CCn1ncc2c(-c3ccnc(C)c3)c(CCC(=O)O)c(C(C)C)nc21 [Example 351, 3-[1-Ethyl-6-isopropyl-4-(2-methyl-4-pyridyl)-1H-pyrazolo[3,4-b]pyridin-5-yl]propanoic acid] | 187 to 189 °C
